Reference: ChEMBL document CHEMBL1201862, “PubChem BioAssay data set” (2004)
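How tested: cells in 96-well plates exposed to compound for 48 hours at five concentrations. Abbreviation: GI50, concentration required for 50% inhibition of growth.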 Active and inactive are the calls of the source. No stated cut-off is given here; in the data, active = GI50 up to about 1.1 µM and inactive = higher.

How the values were obtained:
Experiment in all cases: inhibition of tumour cell growth, NCI panel, 48 h
[1] = tested on: UO-31
[2] = tested on: MCF7
[3] = tested on: A549
[4] = tested on: PC-3
[5] = tested on: HCT-15
[6] = tested on: NCI-H522
[7] = tested on: MDA-MB-435
[8] = tested on: K562
[9] = tested on: CCRF-CEM
[10] = tested on: SF-295
[11] = tested on: MDA-MB-231
[12] = tested on: LOX IMVI
[13] = tested on: T47D
[14] = tested on: TK-10
[15] = tested on: OVCAR-8
[16] = tested on: NCI-H460
[17] = tested on: BT-549
[18] = tested on: COLO 205
[19] = tested on: MOLT-4
[20] = tested on: HOP-62
[21] = tested on: A498
[22] = tested on: SK-OV-3
[23] = tested on: UACC-257
[24] = tested on: SN12C
[25] = tested on: SR
[26] = tested on: SW-620
[27] = tested on: OVCAR-3
[28] = tested on: SNB-19
[29] = tested on: DU-145
[30] = tested on: SF-268
[31] = tested on: HCT-116
[32] = tested on: HT-29
[33] = tested on: EKVX
[34] = tested on: IGROV-1
[35] = tested on: HOP-92
[36] = tested on: M14
[37] = tested on: KM12
[38] = tested on: U-251
[39] = tested on: NCI-H226
[40] = tested on: HCC 2998
[41] = tested on: CAKI-1
[42] = tested on: SK-MEL-5
[43] = tested on: NCI/ADR-RES
[44] = tested on: Hs-578T
[45] = tested on: RXF 393
[46] = tested on: SK-MEL-28
[47] = tested on: UACC-62
[48] = tested on: RPMI-8226
[49] = tested on: MDA-N
[50] = tested on: SK-MEL-2
[51] = tested on: HL-60
[52] = tested on: SNB-75
[53] = tested on: 786-0
[54] = tested on: SF-539
[55] = tested on: OVCAR-5
[56] = tested on: ACHN
[57] = tested on: NCI-H23
[58] = tested on: Malme-3M
[59] = tested on: OVCAR-4

c1ccc2/c3[nH]/c(c2c1)=N\c1ccc(cc1)-c1nc2ccc(cc2o1)/N=c1/[nH]/c(c2ccccc12)=N/c1ccc2nc(oc2c1)-c1ccc(cc1)\N=3
GI50 [1]: 15.9 µM (inactive)
GI50 [2]: 37.8 µM (inactive)
GI50 [3]: 26.8 µM (inactive)
GI50 [4]: 29.9 µM (inactive)
GI50 [5]: 3.1 µM
GI50 [6]: 43.8 µM (inactive)
GI50 [7]: 27.6 µM (inactive)
GI50 [8]: 15.8 µM (inactive)
GI50 [9]: 2.26 µM (inactive)
GI50 [10]: 31 µM (inactive)
GI50 [11]: 27 µM (inactive)
GI50 [12]: 29.4 µM (inactive)
GI50 [13]: 25.2 µM (inactive)
GI50 [14]: > 100 µM (inactive)
GI50 [15]: > 100 µM (inactive)
GI50 [16]: 7.38 µM (inactive)
GI50 [17]: > 100 µM (inactive)
GI50 [18]: 11.6 µM (inactive)
GI50 [19]: 14.9 µM (inactive)
GI50 [20]: 62.4 µM (inactive)
GI50 [21]: 33.5 µM (inactive)
GI50 [22]: 72.8 µM (inactive)
GI50 [23]: > 100 µM (inactive)
GI50 [24]: 20.9 µM (inactive)
GI50 [25]: 20.3 µM (inactive)
GI50 [26]: 26.5 µM (inactive)
GI50 [27]: 26.5 µM (inactive)
GI50 [28]: 26.1 µM (inactive)
GI50 [29]: 23.2 µM (inactive)
GI50 [30]: 15.3 µM (inactive)
GI50 [31]: 32.8 µM (inactive)
GI50 [32]: 33.4 µM (inactive)
GI50 [33]: 45.6 µM (inactive)
GI50 [34]: 47.2 µM (inactive)
GI50 [35]: 37.3 µM (inactive)
GI50 [36]: 53.8 µM (inactive)
GI50 [37]: 35.1 µM (inactive)
GI50 [38]: 20.1 µM (inactive)
GI50 [39]: 68.2 µM (inactive)
GI50 [40]: 17.1 µM (inactive)
GI50 [41]: 35.4 µM (inactive)
GI50 [42]: 12.4 µM (inactive)
GI50 [43]: 20.5 µM (inactive)
GI50 [44]: > 100 µM (inactive)
GI50 [45]: 43.2 µM (inactive)
GI50 [46]: 24.5 µM (inactive)
GI50 [47]: 51.4 µM (inactive)
GI50 [48]: 18.9 µM (inactive)
GI50 [49]: 27.4 µM (inactive)
GI50 [50]: 38.8 µM (inactive)
GI50 [51]: 0.422 µM (active)
GI50 [52]: > 100 µM (inactive)
GI50 [53]: 31 µM (inactive)
GI50 [54]: 77.1 µM (inactive)
GI50 [55]: > 100 µM (inactive)
GI50 [56]: 16.6 µM (inactive)
GI50 [57]: 43.4 µM (inactive)

Cc1nnc(CC#N)n1NC(=O)CC#N
GI50 [1]: > 100 µM (inactive)
GI50 [2]: > 100 µM (inactive)
GI50 [3]: > 100 µM (inactive)
GI50 [4]: > 100 µM (inactive)
GI50 [5]: > 100 µM
GI50 [6]: > 100 µM (inactive)
GI50 [7]: > 100 µM (inactive)
GI50 [8]: > 100 µM (inactive)
GI50 [9]: > 100 µM (inactive)
GI50 [10]: > 100 µM (inactive)
GI50 [11]: > 100 µM (inactive)
GI50 [12]: > 100 µM (inactive)
GI50 [13]: > 100 µM (inactive)
GI50 [14]: > 100 µM (inactive)
GI50 [15]: > 100 µM (inactive)
GI50 [16]: > 100 µM (inactive)
GI50 [17]: > 100 µM (inactive)
GI50 [18]: > 100 µM (inactive)
GI50 [19]: > 100 µM (inactive)
GI50 [20]: > 100 µM (inactive)
GI50 [21]: > 100 µM (inactive)
GI50 [22]: > 100 µM (inactive)
GI50 [23]: > 100 µM (inactive)
GI50 [24]: > 100 µM (inactive)
GI50 [25]: > 100 µM (inactive)
GI50 [26]: > 100 µM (inactive)
GI50 [27]: > 100 µM (inactive)
GI50 [28]: > 100 µM (inactive)
GI50 [29]: > 100 µM (inactive)
GI50 [30]: > 100 µM (inactive)
GI50 [31]: > 100 µM (inactive)
GI50 [32]: > 100 µM (inactive)
GI50 [33]: > 100 µM (inactive)
GI50 [34]: > 100 µM (inactive)
GI50 [35]: > 100 µM (inactive)
GI50 [36]: > 100 µM (inactive)
GI50 [37]: > 100 µM (inactive)
GI50 [38]: > 100 µM (inactive)
GI50 [40]: > 100 µM (inactive)
GI50 [41]: > 100 µM (inactive)
GI50 [42]: > 100 µM (inactive)
GI50 [43]: > 100 µM (inactive)
GI50 [44]: > 100 µM (inactive)
GI50 [45]: > 100 µM (inactive)
GI50 [58]: > 100 µM (inactive)
GI50 [46]: > 100 µM (inactive)
GI50 [47]: > 100 µM (inactive)
GI50 [49]: > 100 µM (inactive)
GI50 [50]: > 100 µM (inactive)
GI50 [51]: > 100 µM (inactive)
GI50 [52]: > 100 µM (inactive)
GI50 [53]: > 100 µM (inactive)
GI50 [54]: > 100 µM (inactive)
GI50 [55]: > 100 µM (inactive)
GI50 [56]: > 100 µM (inactive)
GI50 [57]: > 100 µM (inactive)

CNc1ccc(C(=O)CC(O)CCC(C)C2OC(=O)CC(O)CC(=O)CC(O)CC(O)CC(O)CC(O)CC3(O)CC(O)C(C(=O)NCCN(C)C)C(CC(OC4OC(C)C(O)C(NC(=O)CN5CCN(C)CC5)C4O)\C=C/C=C\C=C/C=C/C=C/C=C\C=C/C2C)O3)cc1 (configuration not stated)
GI50 [59]: 14 µM (inactive)
GI50 [1]: 4.34 µM (inactive)
GI50 [2]: 2.36 µM (inactive)
GI50 [3]: 2.88 µM (inactive)
GI50 [4]: > 100 µM (inactive)
GI50 [5]: 6.18 µM
GI50 [6]: 2.65 µM (inactive)
GI50 [7]: 14.9 µM (inactive)
GI50 [8]: 3.2 µM (inactive)
GI50 [10]: 25.2 µM (inactive)
GI50 [11]: 81.7 µM (inactive)
GI50 [12]: 2.92 µM (inactive)
GI50 [13]: 51.4 µM (inactive)
GI50 [14]: 22.5 µM (inactive)
GI50 [15]: 13.9 µM (inactive)
GI50 [16]: 4.73 µM (inactive)
GI50 [17]: 11.2 µM (inactive)
GI50 [18]: 3.86 µM (inactive)
GI50 [19]: 4.48 µM (inactive)
GI50 [20]: 25.6 µM (inactive)
GI50 [21]: 2.56 µM (inactive)
GI50 [22]: > 100 µM (inactive)
GI50 [23]: 10.7 µM (inactive)
GI50 [24]: 3.21 µM (inactive)
GI50 [25]: 2.48 µM (inactive)
GI50 [26]: 3.66 µM (inactive)
GI50 [28]: 3.38 µM (inactive)
GI50 [29]: 3.22 µM (inactive)
GI50 [30]: 6.64 µM (inactive)
GI50 [32]: 3.85 µM (inactive)
GI50 [34]: 7.67 µM (inactive)
GI50 [35]: > 100 µM (inactive)
GI50 [36]: 30.8 µM (inactive)
GI50 [37]: 2.08 µM (inactive)
GI50 [38]: 4.86 µM (inactive)
GI50 [39]: > 100 µM (inactive)
GI50 [40]: 2.55 µM (inactive)
GI50 [41]: > 100 µM (inactive)
GI50 [42]: 2.81 µM (inactive)
GI50 [43]: 6.9 µM (inactive)
GI50 [44]: 1.91 µM (inactive)
GI50 [45]: > 100 µM (inactive)
GI50 [58]: 2.28 µM (inactive)
GI50 [46]: 9.27 µM (inactive)
GI50 [47]: 46.2 µM (inactive)
GI50 [49]: 6.46 µM (inactive)
GI50 [50]: 6.22 µM (inactive)
GI50 [51]: 7.29 µM (inactive)
GI50 [52]: > 100 µM (inactive)
GI50 [53]: 12.9 µM (inactive)
GI50 [54]: 37.7 µM (inactive)
GI50 [55]: 57.4 µM (inactive)
GI50 [56]: 2.84 µM (inactive)
GI50 [57]: 4.54 µM (inactive)
